Results: patent US4435329A, “Substituted N-(ω-aroylpropionyl) derivatives of α-amino acids and esters thereof” (American Cyanamid Company, priority 1981, dated 1984)

Test system: angiotensin converting enzyme
Experiment: in vitro spectrophotometric assay for inhibition of angiotensin converting enzyme (method of Cushman and Cheung)
Type: biochemical
Settings: crude extract of ACE from rabbit lung acetone powder; substrate benzoyl-glycyl-histidyl-leucine; 30 minutes at 37° C.; result in words only
Experimental: The in vitro activity for inhibition of the angiotensin converting enzyme was measured by the method of D. W. Cushman and H. S. Cheung, Biochem. Pharmacol., Vol. 20, pages 1637-1648 (1972), using benzoyl-glycyl-histidyl-leucine as the substrate. The reaction mixture consisted of 50 μl. of potassium phosphate (500 mM., pH of […]), 30 μl. of sodium chloride (2500 mM.), 25 μl. of substrate (50 mM.), 30 to 50 μl. of the crude extract of ACE, 10 μl. of the test compound (2.5 mM.) or vehicle, and a suitable amount of distilled water to give a total volume of 250 μl. This reaction mixture was incubated for 30 minutes at 37° C. and the reaction was then terminated by the addition of 250 μl. of 1 N hydrochloric acid. The hippuric acid was then extracted with 1.5 ml. of ethyl acetate by vortex mixing for 15 seconds. After centrifugation, one ml. of the ethyl acetate layer was pipetted into a new tube and evaporated to dryness. The extracted hippuric acid was then dissolved in one ml. of water and the amount of this acid was then measured by its absorbance at 228 nm. […] The activity of the ACE inhibitor was calculated as the percent inhibition of ACE activity compared to the control value of that particular assay. […]

In the case of `CC(=O)SC(CC(=O)N[C@H](C(=O)O)C(C)C)C(=O)c1ccc(Br)cc1` (stereo partly drawn) [Example 1, N-[3-Acetylthio-3-(4-bromobenzoyl)propionyl]-L-valine], the “inhibition of the angiotensin converting enzyme” value is reported as “angiotensin converting enzyme inhibitors”.

`COc1ccc(C(=O)C(CC(=O)N[C@@H](Cc2ccccc2)C(=O)O)SC(C)=O)cc1F` (stereo partly drawn) [Example 23, N-[3-Acetylthio-3-(3-fluoro-4-methoxybenzoyl)propionyl]-L-phenylalanine] was tested, and the “inhibition of the angiotensin converting enzyme” value was “angiotensin converting enzyme inhibitors”.
